We go through 14 compounds from patent US7517905B2, “Substituted azabicyclo hexane derivatives as muscarinic receptor antagonists” (Ranbaxy Laboratories Limited, priority 2003, dated 2009).

Assay [1] concerns isolated rat bladder. The assay is described as follows: Functional experiments using isolated rat bladder (carbachol concentration response curve). In kind it is cell-based. To be noted: isolated rat bladder strips, carbachol-induced contraction, antagonist added 20 min before second CRC; for Kb: read-out: Functional Assay pKB (converted). The protocol:
Animals were euthanized by overdose of urethane and whole bladder was isolated and removed rapidly and placed in cold Tyrode buffer with the following composition (mMol/L) sodium chloride 137; KCl 2.7, CaCl2 1.8, MgCl2 0.1; NaHCO3 11.9, NaH2PO4 0.4; Glucose 5.55 and continuously gassed with 95% O2 and 5% CO2
The bladder was cut into longitudinal strips (3 mm wide and 5-6 mm long) and mounted in 10 ml organ baths at 30° C., with one end connected to the base of the tissue holder and the other end connected to a polygraph through a force displacement transducer. Each tissue was maintained at a constant basal tension of 2 g and allowed to equilibrate for 1 hour during which the PSS was changed every 15 min. At the end of equilibration period, the stabilization of the tissue contractile response was assessed with 1 u mol/L of carbachol consecutively for 2-3 times. Subsequently, a cumulative concentration response curve to carbachol (10^−9 mol/L to 3×10^−5 mol/L) was obtained. After several washes, once the baseline was achieved, cumulative concentration response curve was obtained in the presence of NCE (NCE added 20 min. prior to the second CRC).
The contractile results were expressed as % of control E max ED50 values were calculated by fitting a non-linear regression curve (Graph Pad Prism). PKB values were calculated by the formula pKB=−log [(molar concentration of antagonist/(dose ratio-1))] where,
dose ratio=ED50 in the presence of antagonist/ED50 in the absence of antagonist.

In assay [2] the target is T1, M2 muscarinic receptor (Rattus norvegicus, UniProt P10980).
T1 construct: Submandibular glands and heart were isolated and placed in ice cold homogenizing buffer; from tissue; host or cells: rat heart membrane homogenate
T1 sequence (P10980 1-466): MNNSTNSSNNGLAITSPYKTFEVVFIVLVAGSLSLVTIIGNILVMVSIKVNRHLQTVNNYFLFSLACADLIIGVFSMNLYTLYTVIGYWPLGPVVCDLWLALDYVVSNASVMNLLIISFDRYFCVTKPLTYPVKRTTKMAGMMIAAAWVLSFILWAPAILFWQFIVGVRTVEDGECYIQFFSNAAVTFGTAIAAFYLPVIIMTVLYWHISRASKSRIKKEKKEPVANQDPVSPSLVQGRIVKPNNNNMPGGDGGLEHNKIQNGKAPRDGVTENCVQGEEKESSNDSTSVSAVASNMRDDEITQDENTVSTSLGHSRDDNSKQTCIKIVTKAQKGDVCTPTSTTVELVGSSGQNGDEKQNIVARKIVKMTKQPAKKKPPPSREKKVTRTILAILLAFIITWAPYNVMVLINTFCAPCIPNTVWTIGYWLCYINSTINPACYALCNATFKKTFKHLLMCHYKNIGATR
The assay is described as follows: Radioligand binding assay, [3H]-N-methyl scopolamine, rat heart membranes. The following applies: [3H]NMS displacement, Ki by Cheng & Prusoff; for Ki: read-out: Receptor Binding Assay M2 pKi (converted). The protocol: The affinity of test compounds for M2 and M3 muscarinic receptor subtypes was determined by [^3H]—N-methyl scopolamine binding studies using rat heart and submandibular gland, respectively as described by Moriya et al., (Life Sci, 1999, 64(25): 2351-2358).
(§1) Membrane preparation: Submandibular glands and heart were isolated and placed in ice cold homogenizing buffer (HEPES 20 mM, 10 mM EDTA, and pH 7.4) immediately after sacrifice. The tissues were homogenized in 10 volumes of homogenizing buffer and the homogenate was filtered through two layers of wet gauze and filtrate was centrifuged at 500 g for 10 min. The supernatant was subsequently centrifuged at 40.000 g for 20 min. The pallet thus obtained was resuspended in same volume of assay buffer (HEPES 20 mM, EDTA 5 mM, pH 7.4) and were stored at −70° C. until the time of assay.
Ligand binding assay: The compounds were dissolved and diluted in dimethylsulfoxide. The membrane homogenates (150-250 μg protein) were incubated in 250 ul of assay buffer HEPES 20 mM, pH 7.4) at 24-25° C. for 3 hour. Non-specific binding was determined in the presence of 1 μM atropine. The incubation was terminated by vacuum filtration over GF/B fiber filters (Wallac). The filters were then washed with ice-cold 50 mM Tris HCI buffer (pH 7.4). The filter mats were dried and bound radioactivity retained on filters was counted. The IC50 & Kd were estimated by using the non-linear curve-fitting program using G Pad Prism software. The value of inhibition constant Ki was calculated from competitive binding studies by using Cheng & Prusoff equation (Biochem Pharmacol, 1973.22: 3099-3108), Ki=IC50/(1+L/Kd), where L is the concentration of [^3H]NMS used in the particular experiment. pKi=−log Ki Functional Experiments using Isolated Rat Bladder: Methodology: […]

In assay [3] the target is T2, M3 muscarinic receptor (Rattus norvegicus, UniProt P08483).
T2 construct: Submandibular glands and heart were isolated and placed in ice cold homogenizing buffer; from tissue; host or cells: rat submandibular gland membrane homogenate
The assay is described as follows: Radioligand binding assay, [3H]-N-methyl scopolamine, rat submandibular gland membranes. The following applies: [3H]NMS displacement, Ki by Cheng & Prusoff; for Ki: read-out: Receptor Binding Assay M3 pKi (converted). The protocol:
as §1
Ligand binding assay: The compounds were dissolved and diluted in dimethylsulfoxide. The membrane homogenates (150-250 μg protein) were incubated in 250 ul of assay buffer HEPES 20 mM, pH 7.4) at 24-25° C. for 3 hour. Non-specific binding was determined in the presence of 1 μM atropine. The incubation was terminated by vacuum filtration over GF/B fiber filters (Wallac). The filters were then washed with ice-cold 50 mM Tris HCI buffer (pH 7.4). The filter mats were dried and bound radioactivity retained on filters was counted. The IC50 & Kd were estimated by using the non-linear curve-fitting program using G Pad Prism software.

T2 sequence (P08483 whole entry): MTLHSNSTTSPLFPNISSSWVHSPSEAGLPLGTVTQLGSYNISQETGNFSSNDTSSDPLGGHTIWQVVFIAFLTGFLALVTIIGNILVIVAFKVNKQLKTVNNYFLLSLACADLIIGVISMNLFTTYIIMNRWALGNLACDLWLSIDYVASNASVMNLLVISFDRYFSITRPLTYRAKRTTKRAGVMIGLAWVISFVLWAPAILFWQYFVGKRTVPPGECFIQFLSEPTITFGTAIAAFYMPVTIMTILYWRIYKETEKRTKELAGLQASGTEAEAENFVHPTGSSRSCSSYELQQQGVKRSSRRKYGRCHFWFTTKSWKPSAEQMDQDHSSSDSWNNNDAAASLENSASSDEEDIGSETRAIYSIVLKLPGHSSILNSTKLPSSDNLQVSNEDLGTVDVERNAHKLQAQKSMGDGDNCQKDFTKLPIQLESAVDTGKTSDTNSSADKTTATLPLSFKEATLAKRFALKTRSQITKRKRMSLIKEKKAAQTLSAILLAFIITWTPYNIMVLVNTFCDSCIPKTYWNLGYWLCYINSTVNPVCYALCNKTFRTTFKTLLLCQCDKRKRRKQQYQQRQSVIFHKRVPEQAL

Regarding `Cc1ccc(O)c(C(CCNC2C3CN(Cc4ccccc4)CC32)c2ccccc2)c1` (single isomer, unassigned) [Compound No. 16, (R or S)—N-(3-benzy-1-3-azabicyclo[3.1.0]hex-6-yl]-[3-(2-hydroxy-5-methylphenyl)-3-phenylpropyl]amine], in assay [1], the “Functional Assay pKB” value worked out at 7.25 ± 0.15.
Regarding “3-(2-methoxy-5-methylphenyl)-3-phenylpropanoic acid-4-[(3-azabicyclo[3.1.0]hex-6-yl]-ethoxy carbonylamino]butyl ester [Compound No. 5]”, in assay [1], the “Functional Assay pKB” value was found to be 5.15. In addition, the “Receptor Binding Assay M2 pKi” value in assay [2] was less than 6. In assay [3], the “Receptor Binding Assay M3 pKi” value is less than 6.
As for `Cc1ccc(O)c(C(CC(=O)NCC(=O)NC2C3CN(Cc4ccccc4)CC32)c2ccccc2)c1` (centres unmarked) [Compound No. 9, N-[(3-benzyl-3-azabicyclo[3.1.0]hex-6-ylcarbamoyl)-methyl]-3-(2-hydroxy-5-methylphenyl)-3-phenyl-propionamide], in assay [1], the Kb is 1910 nM. Further, the Ki in assay [2] and in assay [3] was more than 1000 nM throughout.
For the compound `Cc1ccc(OCc2ccccc2)c(C(CC(=O)OCC(=O)NC2C3CN(Cc4ccccc4)CC32)c2ccccc2)c1` (centres unmarked) [Compound No. 2, 3-(2-benzyloxy-5-methylphenyl)-3-phenyl propanoic acid-(3-benzyl-3-azabicyclo[3.1.0]-hex-6-ylcarbamoyl)-methyl ester], the Kb in assay [1] was 6760 nM. In addition, the Ki in assay [2] and in assay [3] was more than 1000 nM in each case.
As to `COc1ccc(C)cc1C(CC(=O)NC1C2CNCC21)c1ccccc1` (centres unmarked) [Compound No. 4, N-(3-azabicyclo[3.1.0]hex-6-yl)-3-(2-methoxy-5-methylphenyl)-3-phenyl-1-propionamide], in assay [1], the “Functional Assay pKB” value is listed as 5.64. Besides, the “Receptor Binding Assay M2 pKi” value in assay [2] is recorded as less than 6. Also, in assay [3], the “Receptor Binding Assay M3 pKi” value is recorded as less than 6.
With `Cc1ccc(O)c(C(CC(=O)NC2C3CNCC32)c2ccccc2)c1` (centres unmarked) [Compound No. 3, N-(3-azabicyclo[3.1.0]hex-6-yl)-3-(2-hydroxy-5-methylphenyl)-3-phenyl-1-propanoic acid], the “Functional Assay pKB” value in assay [1] is listed as 5.95. The “Receptor Binding Assay M2 pKi” value in assay [2] is less than 6. For the same compound, in assay [3], the “Receptor Binding Assay M3 pKi” value is reported as less than 6.
Take `CCOC(=O)N(CCCCOC(=O)CC(c1ccccc1)c1cc(C)ccc1OC)C1C2CN(Cc3ccccc3)CC21` (centres unmarked) [Compound No. 12, 3-(2-methoxy-5-methylphenyl)-3-phenylpropionic acid-4-[(3-benzyl-3-azabicyclo[3.1.0]hex-6-yl)-ethoxycarbonylamino]butyl ester]: the “Functional Assay pKB” value in assay [1] came out at 6.72. In assay [2], the “Receptor Binding Assay M2 pKi” value is less than 6. For the same compound, in assay [3], the “Receptor Binding Assay M3 pKi” value was less than 6.
For `Cc1ccc(O)c(C(CC(=O)OCC(=O)NC2C3CNCC32)c2ccccc2)c1` (centres unmarked) [Compound No. 8, 3-(2-hydroxy-5-methylphenyl)-3-phenylpropionic acid-(3-azabicyclo[3.1.0]hex-6-ylcarbamoyl)methyl ester], the “Functional Assay pKB” value in assay [1] was “No blockade”. In addition, the Ki in assay [2] and in assay [3] was more than 1000 nM each time.
Regarding `Cc1ccc(O)c(C(CC(=O)OCCCCNOCCC2C3CNCC23)c2ccccc2)c1` (centres unmarked) [Compound No. 6, 3-(2-hydroxy-5-methylphenyl)-3-phenylpropionic acid 4-[(3-azabicyclo[3.1.0]hex-6-yl)ethoxyamino]butyl ester], in assay [1], the “Functional Assay pKB” value came to 5.84. For the same compound, the “Receptor Binding Assay M2 pKi” value in assay [2] was less than 6. The “Receptor Binding Assay M3 pKi” value in assay [3] is reported as less than 6.
Take `COc1ccc(C)cc1C(CC(=O)OCC(=O)NC1C2CN(Cc3ccccc3)CC21)c1ccccc1` (centres unmarked) [Compound No. 1, 3-(2-Methoxy-5-methylphenyl)-3-phenyl propanoic acid-(3-benzyl-3-azabicyclo[3.1.0]hexane-6-yl-carbamoyl)methyl ester]: in assay [1], the Kb is 9770 nM. Moreover, the Ki in assay [2] and in assay [3] was more than 1000 nM throughout.
For the compound `Cc1ccc(O)c([C@H](CCN(C(C)C)C(C)C)c2ccccc2)c1` [Tolterodine, reference compound], the Kb in assay [1] was 1.38 nM.
With `COc1ccc(C)cc1C(CC(=O)OCC(=O)NC1C2CNCC21)c1ccccc1` (centres unmarked) [Compound No. 7, 3-(2-methoxy-5-methylphenyl)-3-phenylpropionic acid-(3-azabicyclo[3.1.0]hex-6-ylcarbamoyl)methyl ester], in assay [1], the Kb is 2510 nM. Besides, the Ki in assay [2] and in assay [3] was more than 1000 nM in each case.
Take `COc1ccc(C)cc1C(CC(=O)NCC(=O)N[C@H]1[C@@H]2CN(Cc3ccccc3)C[C@@H]21)c1ccccc1` (some centres unmarked) [Compound No. 10, N-[(3-benzyl-3-azabicyclo[3.1.0]hex-6-ylcarbamoyl]-methyl]-3(-2-methoxy-5-methylphenyl)-3-phenyl propionamide]: the Kb in assay [1] was 1950 nM. Moreover, the Ki in assay [2] and in assay [3] was more than 1000 nM each time.
Turning to `Cc1ccc(O)c(C(CC(=O)N[C@H]2[C@@H]3CN(Cc4ccccc4)C[C@@H]32)c2ccccc2)c1` (some centres unmarked) [Compound No. 11, N-(3-benzyl-3-azabicyclo[3.1.0]hex-6-yl)-3-(2-hydroxy-5-methylphenyl)-3-phenyl propionamide], the Kb in assay [1] is 6760 nM. Besides, the Ki in assay [2] and in assay [3] was more than 1000 nM each time.
